Results as given in patent publication US4451475A, “Cyclic sulphenamide compounds, their production and their medicinal use” (Bayer Aktiengesellschaft, priority 1981, dated 1984).

Key:
[1] = test system: lipoxygenase; cyclooxygenase; conditions: in words; one statement for all four named inhibitors; cited from earlier work
platelet lipoxygenase = target: T1, platelet lipoxygenase (Homo sapiens, UniProt P18054); test: Inhibition of the platelet lipoxygenase (synthesis of HETE), metabolism of radioactively labelled arachidonic acid by washed human platelets; format: cell-based; conditions: in vitro
T1 construct: metabolism of radioactively labelled arachidonic acid by washed human platelets; endogenous in cells; host or cells: washed human platelets
T1 sequence (P18054 1-663): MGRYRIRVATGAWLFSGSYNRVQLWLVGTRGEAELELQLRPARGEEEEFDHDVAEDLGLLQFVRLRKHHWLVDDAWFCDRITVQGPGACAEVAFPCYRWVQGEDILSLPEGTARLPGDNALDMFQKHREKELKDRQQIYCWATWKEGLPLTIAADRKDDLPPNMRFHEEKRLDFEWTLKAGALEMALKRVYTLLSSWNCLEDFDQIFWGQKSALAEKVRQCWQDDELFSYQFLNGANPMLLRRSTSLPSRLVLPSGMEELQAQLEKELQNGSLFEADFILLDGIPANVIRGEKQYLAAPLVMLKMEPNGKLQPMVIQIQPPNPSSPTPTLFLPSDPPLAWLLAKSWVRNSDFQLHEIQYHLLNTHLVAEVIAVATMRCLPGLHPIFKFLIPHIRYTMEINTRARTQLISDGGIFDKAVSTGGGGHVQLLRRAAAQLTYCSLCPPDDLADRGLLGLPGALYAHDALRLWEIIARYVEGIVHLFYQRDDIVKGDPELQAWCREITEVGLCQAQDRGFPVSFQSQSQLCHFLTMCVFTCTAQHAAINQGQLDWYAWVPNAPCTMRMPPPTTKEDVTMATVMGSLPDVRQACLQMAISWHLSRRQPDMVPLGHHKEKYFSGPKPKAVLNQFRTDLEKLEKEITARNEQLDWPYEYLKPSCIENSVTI
Protocol: Use is made in this test method of the metabolism of radioactively labelled arachidonic acid by washed human platelets. In this in vitro test, the radioactively labelled metabolites are extracted from the reaction mixture and separated by thin layer chromatography. The autoradiogram is evaluated on a thin layer scanner. Under these test conditions, the labelled metabolites are separated from the unreacted arachidonic acid and are subsequently quantitatively evaluated. The distribution of the radioactivity in the cyclooxygenase products, formed during metabolism, thromboxane B2 (TXB2) and 12-hydroxy-5,8,10-heptadecatrienoic acid (HHT) and the lipoxygenase product 12-hydroxy-5,8,11,14-eicosatetraenoic acid (HETE), as influenced by the inhibitors, gives a measure of the inhibition of the enzymes.
The inhibition of lipoxygenase by the sulphenamides according to the invention can be measured by the inhibition of the synthesis of HETE.

leucocytes = test: Inhibition of the migration of leucocytes after local administration by a sponge soaked in active compound under the dorsal skin of rats; format: in vivo; conditions: 10 mg/rat
Description: The sulphenamides according to the present invention are also active in vivo. […] The following Table 2 summarises the activities of some illustrative sulphenamides after local administration, by introduction of a piece of sponge soaked in the active compound under the dorsal skin of rats.

| SMILES | Selectivity/potency of known inhibitors of lipoxygenase [1] | Minimum effective inhibitory concentration (at least 50% inhibition), inhibition of the platelet lipoxygenase (synthesis of HETE) (platelet lipoxygenase) | Inhibition of the migration of leucocytes (control = 0%) (leucocytes) [%] |
| --- | --- | --- | --- |
| CCCCCC=CCC=CCC=CCC=CCCCC(=O)O [5,8,11,14-eicosatetraenoic acid] | either simultaneously inhibitors of cyclooxygenase or only active at very high concentrations |  |  |
| O=C1OCCN1Sc1ccccc1 [Example 2, 3-phenylthio-oxazolidin-2-one] |  | 10^-6 g/ml | 55 |
| O=C1OCCN1Sc1ccc(Cl)cc1 [Example 4, 3-(4-chlorophenylthio)-oxazolidin-2-one] |  | 10^-7 g/ml | 80 |
| CC(C)(C)c1ccc(SN2CCOC2=O)cc1 [Example 5, 3-(4-tert.-butylphenylthio)-oxazolidin-2-one] |  |  | 72 |
| O=c1scc(-c2ccccc2)n1Sc1ccc(Cl)cc1 [Example 10, 3-(4-chlorophenylthio)-4-phenylthiazolin-2-one] |  |  | 53 |
| CC(Cc1ccc(O)c(O)c1)C(C)Cc1ccc(O)c(O)c1 (stereo not drawn) [nordihydroguaiaretic acid] | either simultaneously inhibitors of cyclooxygenase or only active at very high concentrations |  |  |
| O=C1CCN(c2ccccc2)N1 [phenidone] | either simultaneously inhibitors of cyclooxygenase or only active at very high concentrations |  |  |
